According to ChEMBL document CHEMBL3817726, “Chemically Diverse Group I p21-Activated Kinase (PAK) Inhibitors Impart Acute Cardiovascular Toxicity with a Narrow Therapeutic Window” (J Med Chem, 2016):
In brackets after ≈: the same amount, converted by molar mass.

What was measured:
[1] = Lipophilicity, log D of the compound at pH 7.4; type: physicochemical; details: buffer
[2] = Kinetic solubility of the compound at pH 7.4; type: physicochemical; details: buffer, read-out: Kinetic_solubility
[3] = target: Serine/threonine-protein kinase PAK 1/PAK 2 (Homo sapiens, UniProt Q13177+Q13153); assay: Inhibition of PAK1/2 in human EBC1 cells assessed as phosphorylation of MEK1 at serine 298 after 2 hrs by HTRF assay; type: cell-based
[4] = Apparent permeability across apical to basolateral side in MDCK cells at 10 uM after 60 mins; type: ADME, cell-based, Canis lupus familiaris; details: dog
Homo sapiens [5] = species: Homo sapiens; assay: Selectivity for human recombinant N-terminal 6-His-tagged PAK1 kinase domain (249 to 545 residues) over LCK (unknown origin)
[6] = target: Serine/threonine-protein kinase PAK 1 (Homo sapiens, UniProt Q13153); assay: Inhibition of human recombinant N-terminal 6-His-tagged PAK1 kinase domain (249 to 545 residues) expressed in Escherichia coli BL21(DE3) assessed as phosphorylation of coumarin labeled FRET peptide substrate at Ser/Thr19 preincubated for 10 mins followed by ATP addition measured after 60 mins by Z'-LYTE assay
[7] = Efflux ratio of permeability across basolateral to apical side over apical to basolateral side in MDCK cells at 10 uM after 60 mins; type: ADME, cell-based, Canis lupus familiaris; details: dog
Homo sapiens [8] = species: Homo sapiens; assay: Selectivity for human recombinant N-terminal 6-His-tagged PAK1 kinase domain (249 to 545 residues) over human recombinant PAK4 kinase domain
[9] = Apparent permeability across basolateral to apical side in MDCK cells at 10 uM after 60 mins; type: ADME, cell-based, Canis lupus familiaris; details: dog

Chain of Serine/threonine-protein kinase PAK 1 (Q13153 whole entry, the tested form may be a part): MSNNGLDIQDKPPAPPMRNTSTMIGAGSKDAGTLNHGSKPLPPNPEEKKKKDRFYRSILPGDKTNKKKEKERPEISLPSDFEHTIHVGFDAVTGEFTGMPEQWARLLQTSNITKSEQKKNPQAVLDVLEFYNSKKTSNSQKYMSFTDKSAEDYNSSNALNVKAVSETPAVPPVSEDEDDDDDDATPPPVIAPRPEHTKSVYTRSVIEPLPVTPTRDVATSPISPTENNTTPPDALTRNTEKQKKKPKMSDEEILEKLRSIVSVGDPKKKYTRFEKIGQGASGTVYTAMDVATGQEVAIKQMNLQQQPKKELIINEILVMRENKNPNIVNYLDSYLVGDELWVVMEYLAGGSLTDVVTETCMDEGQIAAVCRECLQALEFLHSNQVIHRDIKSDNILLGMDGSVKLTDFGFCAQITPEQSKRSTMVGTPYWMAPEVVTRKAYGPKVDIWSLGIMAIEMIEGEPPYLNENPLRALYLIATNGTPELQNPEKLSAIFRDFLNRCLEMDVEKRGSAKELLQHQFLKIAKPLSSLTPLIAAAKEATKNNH

Structure (SMILES)	logD [1]	solubility kinetic [2]	IC50 [3]	Papp A→B at 1 h, 10 µM [4]	Selectivity ratio (Homo sapiens [5])	Ki [6]	efflux ratio at 1 h, 10 µM [7]	Selectivity ratio (Homo sapiens [8])	Papp B→A at 1 h, 10 µM [9]
CNc1ncc2cc(-c3ccc(-c4cccc(C)n4)cc3Cl)c(=O)n(CCCN)c2n1					53	3.3 nM		449	
CNc1ncc2cc(-c3ccc(-n4cccc(C)c4=O)cc3Cl)c(=O)n(CC3CCNCC3(F)F)c2n1 (racemic)	0.9	115 µM (≈ 60.6 µg/mL)	78 nM	9.7 ×10⁻⁶ cm/s	20	2.7 nM	1.3		
CNc1ncc2cc(-c3ccc(-n4cccc(C)c4=O)cc3Cl)c(=O)n(CCOC)c2n1	2.2	80 µM (≈ 36.2 µg/mL)	450 nM	27 ×10⁻⁶ cm/s	38	13 nM	0.5		
COCCn1c(=O)c(-c2ccc(-n3cccc(C)c3=O)cc2Cl)cc2cnc(NC3COC3)nc21	1.9	38 µM (≈ 18.8 µg/mL)	290 nM	7.6 ×10⁻⁶ cm/s	158	5.9 nM	2		

Next, values leading:

logD [1]	solubility kinetic [2]	IC50 [3]	Papp A→B at 1 h, 10 µM [4]	Selectivity ratio (Homo sapiens [5])	Ki [6]	efflux ratio at 1 h, 10 µM [7]	Selectivity ratio (Homo sapiens [8])	Papp B→A at 1 h, 10 µM [9]	Structure (SMILES)
2.2	15 µM (≈ 6.57 µg/mL)	930 nM	5.5 ×10⁻⁶ cm/s	63	17 nM	2.8			CNc1ncc2cc(-c3ccc(-n4cccc(C)c4=O)cc3Cl)c(=O)n(CCO)c2n1
0.63	71 µM (≈ 36 µg/mL)	88 nM	0.2 ×10⁻⁶ cm/s	86	4.4 nM	26			CNc1ncc2cc(-c3ccc(-n4cccc(C)c4=O)cc3Cl)c(=O)n(CCOC3CN(C)C3)c2n1
					12 nM				Cc1nccn(-c2ccc(-c3cc4cnc(NC5COC5)nc4n(CC4CCNCC4(F)F)c3=O)c(Cl)c2)c1=O (single isomer, unassigned; enantiomer 2)
				76	13 nM		> 232		CNc1ncc2cc(-c3ccc(-n4ccn(C)c4=O)cc3Cl)c(=O)n(CCCN)c2n1
0.05	82 µM (≈ 37 µg/mL)	602 nM	0.1 ×10⁻⁶ cm/s	221	3.5 nM	4.3	517	0.33 ×10⁻⁶ cm/s	CNc1ncc2cc(-c3ccc(-n4cccc(C)c4=O)cc3Cl)c(=O)n(CCCN)c2n1
